“Also recorded” adds a separate entry of the source.
Tests used:
Format in all cases: cell-based, human
KLF4 [1] = test: KLF4 gene expression by RT-PCR, CCRF-CEM; conditions: relative to vehicle control as 1
Description: (§1) Gene expression levels of KLF4, induced by compounds of Formula I, were also examined on various cancer cell types by RT-PCR. Fold changes in KLF4 in compound-treated cells were expressed relative to KLF4 expression in vehicle control-treated cells of respective cell type as “1”. […] Additionally, xenografts of MDA-MB-435 implanted into mammary fat pads of female SCID mice have shown immunohistochemical staining consistent with melanocytic origin (Ellison G, Klinowska T, Westwood R F, Docter E, French T, Fox J C. (2002) Mol Pathol. 55(5): 294-299). The breast cancer cell line MDA-MB-435 may be expected to function differently than the other breast cancer cell lines.

[2] = test system: metallothionein 1A (MT1A); test: Metallothionein 1A (MT1A) mRNA expression in HT-29 cells, real time PCR; conditions: for MT1A expression change with zinc supplement: HT-29, 1 μM compound plus 35 μM ZnCl2; for MT1A gene expression, change: HT-29, versus DMSO control, in words
Protocol: To determine whether compounds of Formula I can chelate zinc in cells, the effect of compound 3 on the expression level of a zinc-regulated gene, metallothionein 1A (MT1A), in human colon carcinoma HT-29 cells, was determined. HT-29 cells, 1×10^6 cells in 10 mL volume of the growth medium were seeded in 100 mm dishes and incubated overnight at 37° C. The medium was removed and replaced with the growth medium containing 35 μM ZnCl2, 1 μM or 4 μM TPEN (NNNN-tetrakis(2-pyridyl-methyl)ethylenediamine), or 1 μM or 4 μM compound 3, or 0.1% DMSO vehicle control. After incubation for 16 hours, the cells were detached by trypsinization, collected by centrifugation and washed once with PBS. Total RNA was extracted by using TRIZOL (Invitrogen, Life Technologies, Carlsbad, Calif.), following manufacturer's instruction, and the level of MT1A mRNA was measured by real time PCR using the comparative CT method as follows. First strand cDNA was synthesized from 200 ng total RNA in Biometra Tpersonal Thermal Cycler (Abgene, UK), using pd(N)6 random hexamer (Amersham Biosciences, Piscataway, N.J.) and SuperScript™ II Reverse Transcriptase kit (Invitrogen) by following manufacturer's protocol. Real-time PCR was performed in ABI Prism 7000 Sequence Detection System (Applied Biosystems Inc., ABI, Foster City, Calif.), using 5 μL of cDNA synthesized by above-mentioned procedure and respective TaqMan® Gene Expression Assays (ABI) by following ABI TaqMan® Universal PCR master mix protocol.
The effect of compound 3 and compound 7 treatment on the expressions of a zinc-storage protein meallothionein 1A (MT1A) (FIG. 29A), a copper transporter, Ctrl also known as SLC31A1 (FIG. 29B) and an iron transporter; transferrin receptor 1 (TfR1) (FIG. 29C) were measured and compared with a known zinc chelator TPEN, a copper chelator tetramine and an iron chelator DFO, respectively. Despite in vitro chelation of Cu^+2, increase in copper-sensitive gene after compound 3 treatment was transient.
HT-29 cells were treated with 1 μM compound 3 for the indicated time and MT1A gene expression was measured as follows. Total RNA was extracted using TRIZOL method and gene expression level was determined by quantitative reverse-transcription polymerase chain reaction (RT-PCR). MT1A gene expression was normalized with β-actin gene expression in the same sample. Fold change in MT1A was expressed relative to MT1A level of DMSO control at respective time points.
To verify that the MT1A gene expression reflected the intracellular zinc level, HT-29 cells were treated with 1 μM compound 3, 35 μM ZnCl2 or compound 3 and ZnCl2 together for 16 hr (FIG. 38B). MT1A gene expression was determined by RT-PCR as described above. MT1A gene expression was elevated in response to increased intracellular zinc ions in ZnCl2-treated cells.
The ability of compounds of Formula I to modulate gene expression of MT1A (FIG. 55A), MTF-1 (FIG. 55B), Cyclin D1 (FIG. 55C) and KLF4 (FIG. 55D) was determined by RT-PCR. HT-29 cells were treated with 1 μM compound 3 or compound 7, 35 μM ZnCl2, compound 3 and ZnCl2 together, or compound 7 and ZnCl2 together for 8 to 16 hr. The respective gene expression was normalized with β-actin gene expression in the same sample. Fold change in gene expression was expressed relative to the respective gene level of DMSO control.
The effect of compound 3 and compound 64 on gene expression changes in MT1A (FIG. 57A), MTF-1 (FIG. 57B), Cyclin D1 (FIG. 57C) and KLF4 (FIG. 57D) in HT-29 cells was determined by RT-PCR. HT-29 cells were treated with 1 μM compound 3 or compound 64, 35 μM ZnCl2, compound 3 and ZnCl2 together, or compound 64 and ZnCl2 together for 8 to 16 hr. The respective gene expression was normalized with β-actin gene expression in the same sample. Fold change in gene expression was expressed relative to the respective gene level of DMSO control.

KLF4 [3] = test: KLF4 gene expression by RT-PCR, PC-3; conditions: PC-3, relative to vehicle control as 1
Description: as §1

Q: `Cc1[nH]c2ccccc2c1-c1nc2c3cccnc3c3ncccc3c2[nH]1` [Compound 3] was tested. Which “KLF4 (gene fold increase)” value (KLF4 [1]) did it give?
A: The value was 28.05 fold.

Q: And the “MT1A expression change with zinc supplement” value (from here on “MT1A expression change”) [2]?
A: Its value is “reversed by addition of zinc supplement”.

Q: What about the “decrease of MT1A expression” value ([2]; HT-29, 16 hours, 1 μM or 4 μM) of the same molecule?
A: Its value is “more than 50%”.

Q: What about the “MT1A gene expression, change” value [2] of the same molecule?
A: The value was “sustained decrease in zinc-sensitive gene; also recorded: decrease in MT1A gene expression was obvious after 8 hr treatment; also recorded: decreased expressions of MT1A, MTF-1 and Cyclin D1”.

Q: And the “KLF4 (gene fold increase)” value (KLF4 [3])?
A: Its value is 16.28 fold.

Q: With `Cc1[nH]c2ccc(F)cc2c1-c1nc2c3cccnc3c3ncccc3c2[nH]1` [Compound 7] as the molecule, how does the “KLF4 (gene fold increase)” value (KLF4 [1]) read?
A: Its value is 48.5 fold.

Q: And the “MT1A expression change” value [2]?
A: Its value is “reversed by addition of zinc supplement”.

Q: What about the “MT1A gene expression, change” value [2] of the same molecule?
A: Its value is “decreased expressions of MT1A, MTF-1 and Cyclin D1”.

Q: And the “KLF4 (gene fold increase)” value (KLF4 [3])?
A: The value was 12.17 fold.

Q: `CCc1cccc2c(-c3nc4c5cccnc5c5ncccc5c4[nH]3)c(C(C)(C)C)[nH]c12` [Compound 64] was tested. Which “KLF4 (gene fold increase)” value (KLF4 [1]) did it give?
A: Its value is 73.77 fold.

Q: And the “MT1A expression change” value [2]?
A: The value was “reversed by addition of zinc supplement”.

Q: And the “MT1A gene expression, change” value [2]?
A: The value was “decreased expressions of MT1A, MTF-1 and Cyclin D1”.

Q: What about the “KLF4 (gene fold increase)” value (KLF4 [3]) of the same molecule?
A: The value was 1.36 fold.
